Key:
[1] = Selectivity index, ratio of IC50 for human DPP4 to IC50 for Porphyromonas gingivalis N-terminal His-tagged DPP4 expressed in Escherichia coli
Dipeptidyl peptidase IV = Dipeptidyl peptidase IV (Porphyromonas gingivalis, UniProt O31048); assay: Inhibition of Porphyromonas gingivalis N-terminal His-tagged DPP4 expressed in Escherichia coli using Gly-Pro-p-nitroanilide as substrate
[2] = molecular target: Dipeptidyl peptidase IV (Porphyromonas gingivalis) (UniProt O31048); assay: Inhibition of Porphyromonas gingivalis N-terminal His-tagged DPP4 expressed in Escherichia coli at 10 uM using Gly-Pro-p-nitroanilide as substrate relative to control
Chain of Dipeptidyl peptidase IV (Porphyromonas gingivalis) (O31048 20-723 limits assumed): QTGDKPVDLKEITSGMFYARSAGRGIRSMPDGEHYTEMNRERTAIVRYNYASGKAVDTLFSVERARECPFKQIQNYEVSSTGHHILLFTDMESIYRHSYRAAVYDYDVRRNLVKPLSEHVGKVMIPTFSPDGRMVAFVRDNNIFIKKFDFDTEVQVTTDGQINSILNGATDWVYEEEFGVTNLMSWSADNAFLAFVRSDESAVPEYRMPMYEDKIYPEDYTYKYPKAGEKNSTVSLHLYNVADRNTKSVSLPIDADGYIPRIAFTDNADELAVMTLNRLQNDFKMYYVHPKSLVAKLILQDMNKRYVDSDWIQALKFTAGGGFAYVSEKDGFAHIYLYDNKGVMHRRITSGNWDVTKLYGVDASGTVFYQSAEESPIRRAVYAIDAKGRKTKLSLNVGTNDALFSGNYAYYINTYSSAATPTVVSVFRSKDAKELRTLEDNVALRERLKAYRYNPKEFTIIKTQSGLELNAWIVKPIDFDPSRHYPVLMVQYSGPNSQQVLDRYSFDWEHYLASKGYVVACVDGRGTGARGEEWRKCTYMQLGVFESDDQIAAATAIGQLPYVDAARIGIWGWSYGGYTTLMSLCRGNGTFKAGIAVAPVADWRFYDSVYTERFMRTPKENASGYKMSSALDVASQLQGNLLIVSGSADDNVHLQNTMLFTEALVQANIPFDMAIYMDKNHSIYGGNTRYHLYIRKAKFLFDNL

[3] = molecular target: Dipeptidyl peptidase IV (Porphyromonas gingivalis) (UniProt O31048); assay: Inhibition of Porphyromonas gingivalis N-terminal His-tagged DPP4 expressed in Escherichia coli at 100 uM using Gly-Pro-p-nitroanilide as substrate relative to control

Chain of Dipeptidyl peptidase IV (O31048 20-723 limits assumed): as above

Row | SMILES | Ratio IC50 [1] | IC50 (Dipeptidyl peptidase IV; read-out: IC50) | inhibition [2] | inhibition [3] | IC50 (Dipeptidyl peptidase IV)
1 | CNCCCCC(N)C(=O)N1CCCC1 (configuration not stated) | 0.52 | 9.4 µM | > 50% | < 50% | –
2 | Cc1ccc(S(=O)(=O)NCCCCC(N)C(=O)N2CCCC2)cc1 (configuration not stated) | – | – | > 50% | < 50% | IC50 10-100 uM
3 | N[C@@H](CCCCNC(=O)OCc1ccccc1)C(=O)N1CCCC1 | 0.7 to 0.71 | 22 µM | > 50% | < 50% | –
4 | NC(CCCCN(Cc1ccccc1)Cc1ccccc1)C(=O)N1CCCC1 (configuration not stated) | 0.88 | 3.4 µM | > 50% | < 50% | –
5 | CC#CCn1c(N2CCNCC2)nc2c1c(=O)n(Cc1nc(C)c3ccccc3n1)c(=O)n2C | < 0.002 | – | > 50% | < 50% | IC50 10-100 uM
6 | CCC(C)C(N)C(=O)N1CCC(Cl)C1 (configuration not stated) | – | – | > 50% | < 50% | IC50 10-100 uM
7 | N=C(N)NCCCC(N)C(=O)N1CCCC1 (configuration not stated) | – | – | > 50% | < 50% | IC50 10-100 uM
8 | N#C[C@@H]1C[C@H](N=[N+]=[N-])CN1C(=O)[C@@H](N)CCCCN | 6.58 to 6.7 | 0.33 µM | > 50% | < 50% | –
9 | NC(CC(=O)N1CCN(C(c2ccccc2)c2ccc(Cl)cc2)CC1)C(=O)N1Cc2ccc(F)cc2C1 (configuration not stated) | > 5.9 | 17 µM | > 50% | < 50% | –
10 | CCC(C)C(N)C(=O)N1CCCC1 (configuration not stated) | 0.18 | 22 µM | > 50% | < 50% | –
11 | N#C[C@@H]1C[C@H](N=[N+]=[N-])CN1C(=O)[C@@H](N)CCC(=O)NCCN | 0.5 | 0.8 µM | > 50% | < 50% | –
12 | CCC(C)C(N)C(=O)N1Cc2ccc(F)cc2C1 (configuration not stated) | – | – | > 50% | < 50% | IC50 10-100 uM
13 | NC(CCCCN(Cc1ccc2ccccc2c1)Cc1ccc2ccccc2c1)C(=O)N1CCCC1 (configuration not stated) | 1.2 | 3.5 µM | > 50% | < 50% | –
14 | N#C[C@@H]1C[C@H](N=[N+]=[N-])CN1C(=O)[C@@H](N)CCC(=O)N1CCNCC1 | 1.2 | 0.48 µM | > 50% | < 50% | –
15 | CCC(C)C(N)C(=O)N1CCC(C)C1 (configuration not stated) | – | – | > 50% | < 50% | IC50 10-100 uM
16 | NCCNC(=O)CCC(N)Cc1ccccc1 (configuration not stated) | – | – | > 50% | < 50% | IC50 10-100 uM
17 | CC[C@@H](C)[C@H](N)C(=O)N1C[C@H](N=[N+]=[N-])C[C@H]1C#N | – | – | > 50% | < 50% | IC50 10-100 uM
18 | NC(CCCCNCc1ccccc1)C(=O)N1CCCC1 (configuration not stated) | 1.2 | 3.1 µM | > 50% | < 50% | –
19 | CCC(C)C(N)C(=O)N1CC=CCC1 (configuration not stated) | – | – | > 50% | < 50% | IC50 10-100 uM
20 | N#CC1CC(N=[N+]=[N-])CN1C(=O)C1CC(NCc2ccc3ccccc3c2)CN1 (configuration not stated) | – | – | > 50% | < 50% | IC50 10-100 uM
21 | CC(C)[C@H](N)C(=O)N1CCCC1B(O)O (some centres not stated) | – | 0.14 µM | > 50% | < 50% | –

Row | SMILES | Ratio IC50 [1] | IC50 (Dipeptidyl peptidase IV; read-out: IC50) | inhibition [2] | inhibition [3] | IC50 (Dipeptidyl peptidase IV)
22 | NCCCCC(N)C(=O)N1Cc2ccccc2C1 (configuration not stated) | – | – | > 50% | < 50% | IC50 10-100 uM
23 | NC(CC(=O)N1CCN(C(c2ccc(F)cc2)c2ccc(F)cc2)CC1)C(=O)N1Cc2ccc(F)cc2C1 (configuration not stated) | 2.7 | 22 µM | > 50% | < 50% | –
24 | N#C[C@@H]1CCCN1C(=O)[C@@H](N)CCCCNC(=O)OCc1ccccc1 | 0.02 | 1.5 µM | > 50% | < 50% | –
25 | NCCCCC(N)C(=O)N1CCSC1 (configuration not stated) | 0.09 | 19 µM | > 50% | < 50% | –
26 | NC(CCCCNC(=O)Nc1ccccc1)C(=O)N1CCCC1 (configuration not stated) | – | – | > 50% | < 50% | IC50 10-100 uM
27 | NC(CC(=O)N1CCN(C(c2ccc(F)cc2)c2ccc(F)cc2)CC1)C(=O)N1Cc2ccccc2C1 (configuration not stated) | – | – | > 50% | < 50% | IC50 10-100 uM
28 | O=C(C1CC(NCc2ccc3ccccc3c2)CN1)N1Cc2ccccc2C1 (configuration not stated) | – | – | > 50% | < 50% | IC50 10-100 uM
29 | NC(CCCNC(=O)OCc1ccccc1)C(=O)N1CCCC1 (configuration not stated) | – | – | > 50% | < 50% | IC50 10-100 uM
30 | NC(CCCCNCc1ccccc1)C(=O)N1Cc2ccccc2C1 (configuration not stated) | > 4.5 | 11 µM | > 50% | < 50% | –
31 | N[C@@H](CC(=O)N1CCn2c(nnc2C(F)(F)F)C1)Cc1cc(F)c(F)cc1F [SITAGLIPTIN] | – | 18 µM | > 50% | < 50% | –
32 | C=C1CCN(C(=O)C(N)CC(=O)N2CCN(C(c3ccc(F)cc3)c3ccc(F)cc3)CC2)C1 (configuration not stated) | – | – | > 50% | < 50% | IC50 10-100 uM
33 | CC(=O)NCCCCC(N)C(=O)N1CCCC1 (configuration not stated) | – | – | > 50% | < 50% | IC50 10-100 uM
34 | C=C1CCN(C(=O)C(N)C(C)CC)C1 (configuration not stated) | – | – | > 50% | < 50% | IC50 10-100 uM
35 | CCC(C)C(N)C(=O)N1Cc2ccccc2C1 (configuration not stated) | – | – | > 50% | < 50% | IC50 10-100 uM
36 | CC[C@@H](C)[C@H](N)C(=O)N1Cc2ccccc2C1 | – | – | > 50% | – | IC50 10-100 uM
37 | CCCCC(N)C(=O)N1CCCC1 (configuration not stated) | – | – | > 50% | < 50% | IC50 10-100 uM
38 | N#CC1CC(N=[N+]=[N-])CN1C(=O)C(N)CCCCN(Cc1ccc2ccccc2c1)Cc1ccc2ccccc2c1 (configuration not stated) | – | 0.58 µM | > 50% | < 50% | –
39 | CN(CCCCC(N)C(=O)N1CCCC1)Cc1ccccc1 (configuration not stated) | – | – | > 50% | < 50% | IC50 10-100 uM
40 | CS(=O)(=O)NCCCCC(N)C(=O)N1CCCC1 (configuration not stated) | – | – | > 50% | < 50% | IC50 10-100 uM
41 | CC[C@H](C)[C@H](N)C(=O)N1CCSC1 | – | 19 µM | > 50% | – | –
42 | C=C1CC(C)N(C(=O)C(N)CCC(=O)N2CCN(C(c3ccc(F)cc3)c3ccc(F)cc3)CC2)C1 (configuration not stated) | – | – | > 50% | < 50% | IC50 10-100 uM

Row | SMILES | Ratio IC50 [1] | IC50 (Dipeptidyl peptidase IV; read-out: IC50) | inhibition [2] | inhibition [3] | IC50 (Dipeptidyl peptidase IV)
43 | NC(CCCNC(=NC(=O)OCc1ccccc1)NC(=O)OCc1ccccc1)C(=O)N1CCCC1 (configuration not stated) | – | – | > 50% | < 50% | IC50 10-100 uM
44 | CC(C)[C@H](N)C(=O)N1CCCC1 | – | 29 µM | > 50% | – | –
45 | CC(C)C(N)C(=O)N1CCCC1 (configuration not stated) | – | 19 µM | > 50% | < 50% | –
46 | CC1CC(N=[N+]=[N-])CN1C(=O)C(N)CCC(=O)N1CCN(C(c2ccc(F)cc2)c2ccc(F)cc2)CC1 (configuration not stated) | 0.25 | 8 µM | > 50% | < 50% | –
47 | NC(CCCCNC(=O)Oc1ccccc1)C(=O)N1CCCC1 (configuration not stated) | – | – | > 50% | < 50% | IC50 10-100 uM
48 | CCC(C)C(N)C(=O)N1CC=CC1 (configuration not stated) | – | – | > 50% | < 50% | IC50 10-100 uM
49 | NC(C(=O)N1Cc2ccccc2C1)C1CCCCC1 (configuration not stated) | – | – | > 50% | < 50% | IC50 10-100 uM
50 | CC[C@H](C)[C@H](N)C(=O)N1CCCC1 | – | – | > 50% | < 50% | IC50 10-100 uM
51 | CCC(C)C(N)C(=O)N1CCC(N=[N+]=[N-])C1 (configuration not stated) | – | – | > 50% | < 50% | IC50 10-100 uM
52 | NC(CC(=O)N1CCN(C(c2ccccc2)c2ccc(Cl)cc2)CC1)C(=O)N1Cc2ccccc2C1 (configuration not stated) | – | – | > 50% | < 50% | IC50 10-100 uM
53 | N[C@@H](CC(=O)N1CCN(C(c2ccc(F)cc2)c2ccc(F)cc2)CC1)C(=O)N1CCCCC1 | – | – | > 50% | < 50% | IC50 10-100 uM
54 | CC1CCN(C(=O)C(N)CC(=O)N2CCN(C(c3ccc(F)cc3)c3ccc(F)cc3)CC2)C1 (configuration not stated) | – | – | > 50% | < 50% | IC50 10-100 uM
55 | CC(O)C(N)C(=O)N1CCCC1 (configuration not stated) | – | 100 µM | > 50% | < 50% | –
56 | CC1C[C@@H](C#N)N(C(=O)[C@@H](N)CC(=O)N2CCN(C(c3ccc(F)cc3)c3ccc(F)cc3)CC2)C1 (some centres not stated) | – | – | > 50% | < 50% | IC50 10-100 uM
57 | CC[C@H](C)[C@H](N)C(=O)N1CCC(F)C1 (some centres not stated) | – | – | > 50% | < 50% | IC50 10-100 uM
58 | NC(CCCCNC(=O)c1ccccc1)C(=O)N1CCCC1 (configuration not stated) | – | – | > 50% | < 50% | IC50 10-100 uM
59 | CCC(C)C(N)C(=O)N1CCSC1 (configuration not stated) | – | – | > 50% | < 50% | IC50 10-100 uM
60 | NC(CCCCN(Cc1ccccc1)Cc1ccccc1)C(=O)N1Cc2ccccc2C1 (configuration not stated) | – | – | > 50% | < 50% | IC50 10-100 uM
61 | CC[C@@H](C)[C@@H](N)C(=O)N1CCC(C#N)C1 (some centres not stated) | – | – | > 50% | < 50% | IC50 10-100 uM
62 | NC(CCCCNCc1ccc2ccccc2c1)C(=O)N1Cc2ccccc2C1 (configuration not stated) | – | – | > 50% | < 50% | IC50 10-100 uM
63 | NC(CC(=O)N1CCN(C(c2ccc(F)cc2)c2ccc(F)cc2)CC1)C(=O)N1CCC(C(F)(F)F)C1 (configuration not stated) | – | – | > 50% | < 50% | IC50 10-100 uM
